Data from ChEMBL document CHEMBL4330132, “5-Keto-3-cyano-2,4-diaminothiophenes as selective maternal embryonic leucine zipper kinase inhibitors” (Bioorg Med Chem Lett, 2019).

How the values were obtained:
[1] = molecular target: Serine/threonine-protein kinase BRSK2 (Homo sapiens) (UniProt Q8IWQ3); assay: Binding affinity to wild-type human full length BRSK2 (M1 to L674 residues) expressed in bacterial expression system assessed as residual binding level at 1 uM by Kinomescan method relative to control
Serine/threonine-protein kinase BRSK2 (Homo sapiens), sequence (Q8IWQ3 whole entry, the tested form may be a part): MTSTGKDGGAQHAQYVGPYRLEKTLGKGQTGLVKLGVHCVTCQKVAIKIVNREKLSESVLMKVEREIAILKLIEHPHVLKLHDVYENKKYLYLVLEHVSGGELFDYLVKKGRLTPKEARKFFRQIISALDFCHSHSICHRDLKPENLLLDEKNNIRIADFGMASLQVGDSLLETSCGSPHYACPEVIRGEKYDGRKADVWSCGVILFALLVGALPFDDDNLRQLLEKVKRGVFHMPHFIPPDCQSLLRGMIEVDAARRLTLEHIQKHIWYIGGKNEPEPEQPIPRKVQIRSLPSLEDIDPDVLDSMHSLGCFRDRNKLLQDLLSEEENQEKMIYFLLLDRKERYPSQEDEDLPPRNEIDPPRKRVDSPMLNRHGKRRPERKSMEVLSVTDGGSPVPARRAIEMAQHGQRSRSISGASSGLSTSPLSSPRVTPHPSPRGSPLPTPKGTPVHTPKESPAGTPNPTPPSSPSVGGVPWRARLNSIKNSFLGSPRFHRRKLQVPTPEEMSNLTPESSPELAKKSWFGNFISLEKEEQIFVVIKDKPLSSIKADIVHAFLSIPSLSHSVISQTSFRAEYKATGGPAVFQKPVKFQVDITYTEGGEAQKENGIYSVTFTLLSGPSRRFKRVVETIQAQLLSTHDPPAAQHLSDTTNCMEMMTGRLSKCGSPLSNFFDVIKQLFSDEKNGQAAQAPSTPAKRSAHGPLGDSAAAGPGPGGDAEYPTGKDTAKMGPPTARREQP

[2] = molecular target: High affinity nerve growth factor receptor (Homo sapiens) (UniProt P04629); assay: Binding affinity to wild-type human partial length TRKA (G475 to G790 residues) expressed in mammalian expression system assessed as residual binding level at 1 uM by Kinomescan method relative to control
High affinity nerve growth factor receptor (Homo sapiens), sequence (P04629 33-796 limits assumed): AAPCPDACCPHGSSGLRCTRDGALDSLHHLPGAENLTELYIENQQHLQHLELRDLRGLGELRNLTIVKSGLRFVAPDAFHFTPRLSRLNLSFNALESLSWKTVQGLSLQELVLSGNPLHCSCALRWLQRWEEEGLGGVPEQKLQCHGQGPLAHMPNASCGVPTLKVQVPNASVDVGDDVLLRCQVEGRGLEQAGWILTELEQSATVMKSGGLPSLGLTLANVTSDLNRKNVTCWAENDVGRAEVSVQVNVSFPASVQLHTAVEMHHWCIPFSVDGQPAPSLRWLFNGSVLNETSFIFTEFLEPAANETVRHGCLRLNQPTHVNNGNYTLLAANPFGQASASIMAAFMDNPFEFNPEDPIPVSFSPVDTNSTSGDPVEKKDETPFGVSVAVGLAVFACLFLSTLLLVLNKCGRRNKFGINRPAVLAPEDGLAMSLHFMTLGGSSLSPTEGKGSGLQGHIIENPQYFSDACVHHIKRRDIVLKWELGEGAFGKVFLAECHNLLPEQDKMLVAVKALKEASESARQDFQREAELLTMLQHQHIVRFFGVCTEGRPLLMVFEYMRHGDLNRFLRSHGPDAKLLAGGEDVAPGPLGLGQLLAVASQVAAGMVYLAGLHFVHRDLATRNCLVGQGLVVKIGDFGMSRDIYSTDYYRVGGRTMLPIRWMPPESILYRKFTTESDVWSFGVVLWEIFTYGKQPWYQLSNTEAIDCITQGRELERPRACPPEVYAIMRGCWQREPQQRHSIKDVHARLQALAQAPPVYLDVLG

[3] = molecular target: Interleukin-1 receptor-associated kinase 4 (Homo sapiens) (UniProt Q9NWZ3); assay: Binding affinity to wild-type human partial length IRAK4 (M1 to S460 residues) expressed in mammalian expression system assessed as residual binding level at 1 uM by Kinomescan method relative to control
Interleukin-1 receptor-associated kinase 4 (Homo sapiens), sequence (Q9NWZ3 whole entry, the tested form may be a part): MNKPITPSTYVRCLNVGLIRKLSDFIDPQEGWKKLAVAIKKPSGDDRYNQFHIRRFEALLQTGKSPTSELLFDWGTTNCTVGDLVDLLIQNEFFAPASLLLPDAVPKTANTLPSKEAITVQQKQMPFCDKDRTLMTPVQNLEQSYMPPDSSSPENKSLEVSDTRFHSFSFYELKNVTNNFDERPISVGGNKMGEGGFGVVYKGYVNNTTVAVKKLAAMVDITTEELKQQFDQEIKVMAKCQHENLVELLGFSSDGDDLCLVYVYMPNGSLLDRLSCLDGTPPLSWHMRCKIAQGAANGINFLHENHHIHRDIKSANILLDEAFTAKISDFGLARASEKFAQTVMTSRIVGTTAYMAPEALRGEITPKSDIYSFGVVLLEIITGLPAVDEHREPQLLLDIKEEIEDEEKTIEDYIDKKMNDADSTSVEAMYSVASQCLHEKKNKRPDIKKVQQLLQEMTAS

[4] = molecular target: Vascular endothelial growth factor receptor 1 (Homo sapiens) (UniProt P17948); assay: Binding affinity to wild-type human partial length FLT1 (R781 to F1239 residues) expressed in bacterial expression system assessed as residual binding level at 1 uM by Kinomescan method relative to control
Vascular endothelial growth factor receptor 1 (Homo sapiens), sequence (P17948 whole entry, the tested form may be a part): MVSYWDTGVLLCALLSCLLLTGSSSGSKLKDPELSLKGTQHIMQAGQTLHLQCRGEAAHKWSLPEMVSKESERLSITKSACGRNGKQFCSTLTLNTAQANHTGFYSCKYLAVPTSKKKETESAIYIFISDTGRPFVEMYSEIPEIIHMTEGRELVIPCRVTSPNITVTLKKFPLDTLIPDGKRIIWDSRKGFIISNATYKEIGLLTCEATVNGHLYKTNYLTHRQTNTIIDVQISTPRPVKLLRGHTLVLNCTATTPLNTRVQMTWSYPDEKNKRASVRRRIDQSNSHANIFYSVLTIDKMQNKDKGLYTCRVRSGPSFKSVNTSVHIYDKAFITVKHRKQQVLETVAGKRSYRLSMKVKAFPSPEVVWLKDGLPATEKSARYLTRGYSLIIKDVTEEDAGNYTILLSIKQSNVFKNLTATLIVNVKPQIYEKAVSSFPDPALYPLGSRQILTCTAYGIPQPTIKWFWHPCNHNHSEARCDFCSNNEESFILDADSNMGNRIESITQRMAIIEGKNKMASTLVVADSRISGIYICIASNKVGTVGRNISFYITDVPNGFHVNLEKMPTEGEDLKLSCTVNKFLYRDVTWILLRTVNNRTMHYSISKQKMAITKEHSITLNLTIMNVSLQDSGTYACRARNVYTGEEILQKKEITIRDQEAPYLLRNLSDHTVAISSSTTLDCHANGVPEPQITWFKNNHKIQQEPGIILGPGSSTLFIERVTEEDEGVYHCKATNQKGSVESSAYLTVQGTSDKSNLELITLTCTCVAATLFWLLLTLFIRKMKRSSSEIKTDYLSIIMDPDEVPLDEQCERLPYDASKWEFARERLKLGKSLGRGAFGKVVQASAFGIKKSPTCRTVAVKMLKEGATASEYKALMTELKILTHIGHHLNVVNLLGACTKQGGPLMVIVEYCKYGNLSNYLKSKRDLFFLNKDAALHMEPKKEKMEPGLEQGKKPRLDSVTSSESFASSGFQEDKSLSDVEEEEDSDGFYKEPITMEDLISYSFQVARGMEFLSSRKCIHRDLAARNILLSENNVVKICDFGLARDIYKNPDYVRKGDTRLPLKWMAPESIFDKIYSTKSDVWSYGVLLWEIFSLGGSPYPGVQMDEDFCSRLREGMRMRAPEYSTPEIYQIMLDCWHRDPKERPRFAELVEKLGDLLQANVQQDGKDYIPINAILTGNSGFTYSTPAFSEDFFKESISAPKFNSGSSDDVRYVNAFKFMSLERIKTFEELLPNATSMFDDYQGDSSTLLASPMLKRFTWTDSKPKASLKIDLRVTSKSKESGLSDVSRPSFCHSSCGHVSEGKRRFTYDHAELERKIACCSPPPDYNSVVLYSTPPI

[5] = molecular target: Maternal embryonic leucine zipper kinase (Homo sapiens, UniProt Q14680); assay: Inhibition of recombinant human MELK expressed in Escherichia coli using ZIPtide as substrate measured after 0.5 hrs by ADP-Glo assay
Maternal embryonic leucine zipper kinase, sequence (Q14680 whole entry): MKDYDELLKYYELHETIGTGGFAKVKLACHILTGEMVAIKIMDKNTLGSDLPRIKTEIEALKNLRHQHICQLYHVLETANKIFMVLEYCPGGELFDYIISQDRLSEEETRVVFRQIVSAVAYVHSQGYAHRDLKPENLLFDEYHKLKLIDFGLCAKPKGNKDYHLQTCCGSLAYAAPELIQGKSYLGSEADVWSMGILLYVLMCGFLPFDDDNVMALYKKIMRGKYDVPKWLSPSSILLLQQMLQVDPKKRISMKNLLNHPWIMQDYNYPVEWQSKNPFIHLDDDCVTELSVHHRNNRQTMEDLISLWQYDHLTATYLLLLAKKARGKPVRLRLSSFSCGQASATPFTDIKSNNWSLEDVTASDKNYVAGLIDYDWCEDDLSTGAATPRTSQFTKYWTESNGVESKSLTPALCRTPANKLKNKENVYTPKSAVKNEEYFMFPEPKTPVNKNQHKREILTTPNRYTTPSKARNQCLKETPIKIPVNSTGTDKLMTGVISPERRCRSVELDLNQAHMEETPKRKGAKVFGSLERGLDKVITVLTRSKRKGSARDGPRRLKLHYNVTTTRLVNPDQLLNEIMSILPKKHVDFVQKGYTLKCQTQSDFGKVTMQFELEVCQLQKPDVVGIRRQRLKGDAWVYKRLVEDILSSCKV

[6] = molecular target: RAC-alpha serine/threonine-protein kinase (Homo sapiens) (UniProt P31749); assay: Binding affinity to wild-type human partial length AKT1 expressed in bacterial expression system assessed as residual binding level at 1 uM by Kinomescan method relative to control
[7] = molecular target: Dual specificity protein kinase CLK4 (Homo sapiens) (UniProt Q9HAZ1); assay: Binding affinity to wild-type human partial length CLK4 (R135 to K481 residues) expressed in bacterial expression system assessed as residual binding level at 1 uM by Kinomescan method relative to control
[8] = molecular target: Epithelial discoidin domain-containing receptor 1 (Homo sapiens) (UniProt Q08345); assay: Binding affinity to wild-type human partial length DDR1 (R565 to V876 residues) expressed in bacterial expression system assessed as residual binding level at 1 uM by Kinomescan method relative to control
[9] = molecular target: Tyrosine-protein kinase BTK (Homo sapiens) (UniProt Q06187); assay: Binding affinity to wild-type human full length BTK (M1 to S659 residues) expressed in mammalian expression system assessed as residual binding level at 1 uM by Kinomescan method relative to control
[10] = molecular target: Serine/threonine-protein kinase PknB (Mycobacterium tuberculosis) (UniProt P9WI81); assay: Binding affinity to wild-type Mycobacterium tuberculosis H37Rv partial length PKNB (M1 to G279 residues) expressed in mammalian expression system assessed as residual binding level at 1 uM by Kinomescan method relative to control
[11] = molecular target: Dual specificity tyrosine-phosphorylation-regulated kinase 2 (Homo sapiens) (UniProt Q92630); assay: Binding affinity to wild-type human full length DYRK2 (M1 to S528 residues) expressed in mammalian expression system assessed as residual binding level at 1 uM by Kinomescan method relative to control
Dual specificity tyrosine-phosphorylation-regulated kinase 2 (Homo sapiens), sequence (Q92630 whole entry, the tested form may be a part): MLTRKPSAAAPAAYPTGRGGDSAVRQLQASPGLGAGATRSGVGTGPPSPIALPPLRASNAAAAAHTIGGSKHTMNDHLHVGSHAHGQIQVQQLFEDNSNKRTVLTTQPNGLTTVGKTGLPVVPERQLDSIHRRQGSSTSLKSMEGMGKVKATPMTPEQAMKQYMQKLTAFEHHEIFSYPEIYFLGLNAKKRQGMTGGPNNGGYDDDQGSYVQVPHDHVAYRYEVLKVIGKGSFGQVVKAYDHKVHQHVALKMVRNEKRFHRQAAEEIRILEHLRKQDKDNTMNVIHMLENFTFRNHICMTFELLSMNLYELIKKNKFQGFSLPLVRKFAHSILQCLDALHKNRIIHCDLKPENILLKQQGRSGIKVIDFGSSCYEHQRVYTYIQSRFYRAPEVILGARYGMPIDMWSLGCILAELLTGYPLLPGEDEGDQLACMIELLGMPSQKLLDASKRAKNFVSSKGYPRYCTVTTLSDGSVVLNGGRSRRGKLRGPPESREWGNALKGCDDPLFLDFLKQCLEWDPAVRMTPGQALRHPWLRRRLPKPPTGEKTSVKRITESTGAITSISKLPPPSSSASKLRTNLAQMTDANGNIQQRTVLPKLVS

[12] = molecular target: Atypical kinase COQ8B, mitochondrial (Homo sapiens) (UniProt Q96D53); assay: Binding affinity to wild-type human full length ADCK4 (M1 to S544 residues) expressed in bacterial expression system assessed as residual binding level at 1 uM by Kinomescan method relative to control
[13] = test system: Proto-oncogene tyrosine-protein kinase receptor Ret (Homo sapiens), P07949 [V804L]; assay: Binding affinity to human partial length RET V804L mutant (E713 to D1014 residues) expressed in bacterial expression system assessed as residual binding level at 1 uM by Kinomescan method relative to control
[14] = test system: Mast/stem cell growth factor receptor Kit (Homo sapiens), P10721 [V559D]; assay: Binding affinity to human partial length KIT V559D mutant (Y545 to D952 residues) expressed in bacterial expression system assessed as residual binding level at 1 uM by Kinomescan method relative to control
[15] = molecular target: Receptor tyrosine-protein kinase erbB-2 (Homo sapiens) (UniProt P04626); assay: Binding affinity to wild-type human partial length ERBB2 (K646 to V1225 residues) expressed in mammalian expression system assessed as residual binding level at 1 uM by Kinomescan method relative to control
[16] = molecular target: Mitogen-activated protein kinase kinase kinase kinase 3 (Homo sapiens) (UniProt Q8IVH8); assay: Binding affinity to wild-type human partial length MAP4K3 (M1 to D301 residues) expressed in bacterial expression system assessed as residual binding level at 1 uM by Kinomescan method relative to control
[17] = molecular target: Casein kinase I isoform alpha (Homo sapiens) (UniProt P48729); assay: Binding affinity to wild-type human partial length CSNK1A1 (M1 to L450 residues) expressed in mammalian expression system assessed as residual binding level at 1 uM by Kinomescan method relative to control
[18] = molecular target: Calcium-dependent protein kinase 1 (Plasmodium falciparum) (UniProt P62344); assay: Binding affinity to wild-type Plasmodium falciparum full length CDPK1 (M1 to S524 residues) expressed in mammalian expression system assessed as residual binding level at 1 uM by Kinomescan method relative to control
[19] = molecular target: Phosphatidylinositol 4-kinase beta (Homo sapiens) (UniProt Q9UBF8); assay: Binding affinity to wild-type human full length PIK4CB (M1 to M828 residues) expressed in mammalian expression system assessed as residual binding level at 1 uM by Kinomescan method relative to control
[20] = molecular target: Cyclin-dependent kinase 2 (Homo sapiens) (UniProt P24941); assay: Binding affinity to wild-type human full length CDK2 (M1 to L298 residues) expressed in bacterial expression system assessed as residual binding level at 1 uM by Kinomescan method relative to control
[21] = molecular target: Dual specificity mitogen-activated protein kinase kinase 5 (Homo sapiens) (UniProt Q13163); assay: Binding affinity to wild-type human partial length MEK5 (L98 to P448 residues) expressed in mammalian expression system assessed as residual binding level at 1 uM by Kinomescan method relative to control
Dual specificity mitogen-activated protein kinase kinase 5 (Homo sapiens), sequence (Q13163 whole entry, the tested form may be a part): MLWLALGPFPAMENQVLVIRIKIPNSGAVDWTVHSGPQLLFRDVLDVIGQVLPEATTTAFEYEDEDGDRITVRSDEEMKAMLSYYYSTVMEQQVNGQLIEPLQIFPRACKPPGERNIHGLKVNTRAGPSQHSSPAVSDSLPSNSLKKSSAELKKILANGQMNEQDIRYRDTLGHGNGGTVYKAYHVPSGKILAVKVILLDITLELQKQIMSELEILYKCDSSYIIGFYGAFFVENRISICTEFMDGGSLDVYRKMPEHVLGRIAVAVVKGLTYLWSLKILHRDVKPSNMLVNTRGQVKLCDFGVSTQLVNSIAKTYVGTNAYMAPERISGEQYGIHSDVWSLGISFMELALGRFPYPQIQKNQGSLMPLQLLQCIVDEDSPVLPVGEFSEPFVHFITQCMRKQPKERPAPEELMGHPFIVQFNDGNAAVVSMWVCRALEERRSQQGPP

[22] = test system: Mast/stem cell growth factor receptor Kit (Homo sapiens), P10721 [D816V]; assay: Binding affinity to human partial length KIT D816V mutant (I571 to D952 residues) expressed in bacterial expression system assessed as residual binding level at 1 uM by Kinomescan method relative to control
[23] = molecular target: Rho-associated protein kinase 1 (Homo sapiens) (UniProt Q13464); assay: Binding affinity to wild-type human partial length ROCK1 (M1 to R415 residues) expressed in mammalian expression system assessed as residual binding level at 1 uM by Kinomescan method relative to control
[24] = test system: Tyrosine-protein kinase ABL1 (Homo sapiens), P00519 [M351T]; assay: Binding affinity to human phosphorylated ABL1 M351T mutant (S229 to K512 residues) expressed in mammalian expression system assessed as residual binding level at 1 uM by Kinomescan method relative to control
[25] = molecular target: Mitogen-activated protein kinase kinase kinase 10 (Homo sapiens) (UniProt Q02779); assay: Binding affinity to wild-type human partial length MLK2 (V52 to W380 residues) expressed in bacterial expression system assessed as residual binding level at 1 uM by Kinomescan method relative to control

CC(C)Nc1sc(C(=O)c2ccc(Cl)s2)c(N)c1C#N
Activity [1]: 58% | Activity [2]: 92% | Activity [3]: 100% | Activity [4]: 76% | IC50 [5]: 192 nM | Activity [6]: 84% | Activity [7]: 88% | Activity [8]: 63% | Activity [9]: 74% | Activity [10]: 95% | Activity [11]: 100% | Activity [12]: 100% | Activity [13]: 97% | Activity [14]: 59% | Activity [15]: 76% | Activity [16]: 59% | Activity [17]: 100% | Activity [18]: 67% | Activity [19]: 100% | Activity [20]: 66% | Activity [21]: 100% | Activity [22]: 55% | Activity [23]: 100% | Activity [24]: 100% | Activity [25]: 100%
